Results from ChEMBL document CHEMBL1201862, “PubChem BioAssay data set” (2004).
Several values for one entry are separate records, joined by “and”; a condition that tells them apart may be missing. Equal values may be shown once. Activity calls are given as the source filed them.

What was measured:
Leucine aminopeptidase = molecular target: T1, Leucine aminopeptidase (Plasmodium falciparum 3D7, UniProt Q8IL11); test: P. falciparum M17LAP inhibitors, primary screen, biochemical, fluorogenic H-Leu-NHMec substrate, 1536-well (AID 1619); type: functional
T1 sequence (Q8IL11 whole entry): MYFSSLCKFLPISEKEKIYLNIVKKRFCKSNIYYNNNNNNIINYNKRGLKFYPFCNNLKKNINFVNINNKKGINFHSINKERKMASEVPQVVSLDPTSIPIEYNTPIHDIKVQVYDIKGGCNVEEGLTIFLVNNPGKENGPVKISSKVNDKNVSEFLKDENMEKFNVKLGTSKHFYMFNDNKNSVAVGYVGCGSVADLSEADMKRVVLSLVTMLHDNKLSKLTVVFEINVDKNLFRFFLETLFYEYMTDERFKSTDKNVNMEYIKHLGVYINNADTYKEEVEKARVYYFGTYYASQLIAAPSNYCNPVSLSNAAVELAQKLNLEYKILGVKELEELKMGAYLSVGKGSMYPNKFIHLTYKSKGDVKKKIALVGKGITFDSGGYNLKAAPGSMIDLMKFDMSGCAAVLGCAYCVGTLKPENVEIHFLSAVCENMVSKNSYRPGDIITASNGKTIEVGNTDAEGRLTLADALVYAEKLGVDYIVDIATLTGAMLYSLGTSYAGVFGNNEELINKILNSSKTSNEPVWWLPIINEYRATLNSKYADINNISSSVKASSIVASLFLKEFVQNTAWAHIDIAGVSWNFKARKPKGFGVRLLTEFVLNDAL

Cytochrome P450 1A2 = molecular target: T2, Cytochrome P450 1A2 (Homo sapiens, UniProt P05177);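 also: PubChem cytochrome P450 panel assay, CYP1A2 panel member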
T2 sequence (P05177 whole entry): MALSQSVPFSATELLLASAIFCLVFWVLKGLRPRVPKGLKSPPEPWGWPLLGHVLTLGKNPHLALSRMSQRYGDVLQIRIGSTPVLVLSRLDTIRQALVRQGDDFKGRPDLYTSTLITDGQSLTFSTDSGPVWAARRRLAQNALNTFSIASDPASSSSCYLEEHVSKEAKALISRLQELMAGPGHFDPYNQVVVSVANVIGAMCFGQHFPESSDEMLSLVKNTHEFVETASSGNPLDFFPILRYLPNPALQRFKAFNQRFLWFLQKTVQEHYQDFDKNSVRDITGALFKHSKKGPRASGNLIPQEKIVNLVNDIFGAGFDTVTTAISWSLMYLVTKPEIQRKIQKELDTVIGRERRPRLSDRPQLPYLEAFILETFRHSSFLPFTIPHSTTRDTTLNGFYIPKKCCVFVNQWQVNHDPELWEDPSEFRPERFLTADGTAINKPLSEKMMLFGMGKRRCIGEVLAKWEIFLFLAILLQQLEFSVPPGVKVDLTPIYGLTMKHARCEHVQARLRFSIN

Cytochrome P450 2C9 = Cytochrome P450 2C9 (Homo sapiens, UniProt P11712)
Chain of Cytochrome P450 2C9 (P11712 whole entry): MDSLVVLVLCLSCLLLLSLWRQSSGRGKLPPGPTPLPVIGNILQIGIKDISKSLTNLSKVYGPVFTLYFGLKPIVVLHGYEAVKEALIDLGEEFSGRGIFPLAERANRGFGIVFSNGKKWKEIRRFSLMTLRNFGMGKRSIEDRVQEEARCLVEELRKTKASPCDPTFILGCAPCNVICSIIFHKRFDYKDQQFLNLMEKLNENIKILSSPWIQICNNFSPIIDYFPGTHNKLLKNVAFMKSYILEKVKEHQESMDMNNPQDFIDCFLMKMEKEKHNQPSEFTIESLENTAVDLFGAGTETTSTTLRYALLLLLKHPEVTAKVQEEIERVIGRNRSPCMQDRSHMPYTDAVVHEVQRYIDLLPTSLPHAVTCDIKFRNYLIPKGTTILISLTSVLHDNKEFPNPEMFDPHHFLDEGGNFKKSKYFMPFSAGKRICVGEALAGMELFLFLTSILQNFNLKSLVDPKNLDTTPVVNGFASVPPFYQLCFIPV

[1] = molecular target: T3, Ubiquitin-conjugating enzyme E2 N (Homo sapiens, UniProt P61088); type: functional;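 also: Dose-response confirmation in a TR-FRET assay detecting UBC13-driven polyubiquitin chain formation, inhibition measured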
T3 sequence (P61088 whole entry): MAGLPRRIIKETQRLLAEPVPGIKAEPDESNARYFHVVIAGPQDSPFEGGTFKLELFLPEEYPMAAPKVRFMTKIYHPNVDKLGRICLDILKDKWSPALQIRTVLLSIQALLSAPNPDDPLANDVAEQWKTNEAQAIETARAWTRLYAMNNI

[2] = viability loss in THP-1 monocytes – THP-1 cells, cytotoxicity control for Vif-APOBEC3G degradation inhibitor project, dose response (AID 1117359); type: functional; settings: THP-1
[3] = Luminescence Cell-Based Dose Response HTS to Identify Activators of Luciferase Translation or Activity in H4 […] Cells. [Related pubchem assays: 1829 (Project Summary), 1814 (Primary HTS)]; type: functional
[4] = tested on: Streptococcus sp. 'group A'; test: Streptococcus pyogenes SK(-)GAS viability under kanamycin – luminescence, BacTiterGlo, confirmation, counter-screen for streptokinase expression inhibitor project, dose response (AID 1900); type: functional, organism-based
H4 = test: Luminescence Cell-Based Dose Response HTS to Identify Activators of 5'UTR Stem-Loop Driven Prion Protein mRNA Translation in H4 Neuroglioblastoma Cells. [Related pubchem assays: 1829 (Project Summary), 1814 (Primary HTS)]; type: functional; settings: Homo sapiens
Streptokinase A = molecular target: T4, Streptokinase A (Streptococcus pyogenes serotype M1, UniProt P10520); test: viability-normalized secreted streptokinase activity reduction – plasminogen activation absorbance, OD405, dose response (AID 1914); type: functional, Streptococcus pyogenes M1 GAS;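 also: secreted streptokinase activity via plasminogen activation per viability signal from cell pellet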
T4 sequence (P10520 whole entry): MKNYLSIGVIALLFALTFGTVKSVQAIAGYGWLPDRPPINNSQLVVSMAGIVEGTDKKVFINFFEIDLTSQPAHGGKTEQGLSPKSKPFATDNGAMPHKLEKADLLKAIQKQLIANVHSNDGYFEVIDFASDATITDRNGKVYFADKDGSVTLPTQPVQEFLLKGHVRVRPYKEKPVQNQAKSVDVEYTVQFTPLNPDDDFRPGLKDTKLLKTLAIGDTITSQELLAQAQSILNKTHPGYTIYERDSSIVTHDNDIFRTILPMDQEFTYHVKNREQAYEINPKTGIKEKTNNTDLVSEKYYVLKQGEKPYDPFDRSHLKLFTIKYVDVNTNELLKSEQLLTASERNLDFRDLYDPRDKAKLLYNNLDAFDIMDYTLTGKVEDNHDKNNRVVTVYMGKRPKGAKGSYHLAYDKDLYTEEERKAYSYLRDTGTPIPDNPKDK

[5] = Trypanosoma cruzi growth suppression in host cells – NIH3T3 host cells, beta-gal luminescence, confirmation (AID 2044); type: functional, cell-based;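 also: intracellular parasites grown in NIH/3T3 mouse fibroblasts as host cells; luminescent beta-galactosidase reporter signal from transgenic T. cruzi replicating inside host cells; inhibitors lower the luminescence signal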
[6] = NIH3T3 cell viability loss – ATP luminescence, mouse fibroblasts, counter-screen, dose response (AID 2010); type: functional, cell-based;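 also: cells exposed to compound for about 90 hours before reading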
Streptococcus = test: GAS UMAA2166 growth inhibition – luminescence, BacTiterGlo, counter-screen for streptokinase expression inhibitor project, dose response (AID 1915); type: functional, organism-based;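 also: potency for reduction of bacterial viability or growth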
Nonstructural protein 1 = Nonstructural protein 1 (Influenza A virus, UniProt Q194T2); type: functional, Influenza A virus (A/California/07/2009(H1N1))
Chain of Nonstructural protein 1 (Q194T2 whole entry): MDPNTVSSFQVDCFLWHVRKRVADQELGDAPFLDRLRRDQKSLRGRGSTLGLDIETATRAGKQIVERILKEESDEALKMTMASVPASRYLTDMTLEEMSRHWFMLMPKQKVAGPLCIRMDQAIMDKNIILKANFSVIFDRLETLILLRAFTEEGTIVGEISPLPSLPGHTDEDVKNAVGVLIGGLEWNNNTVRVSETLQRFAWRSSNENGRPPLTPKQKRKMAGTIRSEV

[7] = molecular target: T5, Replicative DNA helicase DnaB (Mycobacterium tuberculosis, UniProt P9WMR3); test: DnaB intein splicing inhibitors, dose response, biochemical, cell-free fluorescence (AID 449749); type: functional
T5 sequence (P9WMR3 whole entry): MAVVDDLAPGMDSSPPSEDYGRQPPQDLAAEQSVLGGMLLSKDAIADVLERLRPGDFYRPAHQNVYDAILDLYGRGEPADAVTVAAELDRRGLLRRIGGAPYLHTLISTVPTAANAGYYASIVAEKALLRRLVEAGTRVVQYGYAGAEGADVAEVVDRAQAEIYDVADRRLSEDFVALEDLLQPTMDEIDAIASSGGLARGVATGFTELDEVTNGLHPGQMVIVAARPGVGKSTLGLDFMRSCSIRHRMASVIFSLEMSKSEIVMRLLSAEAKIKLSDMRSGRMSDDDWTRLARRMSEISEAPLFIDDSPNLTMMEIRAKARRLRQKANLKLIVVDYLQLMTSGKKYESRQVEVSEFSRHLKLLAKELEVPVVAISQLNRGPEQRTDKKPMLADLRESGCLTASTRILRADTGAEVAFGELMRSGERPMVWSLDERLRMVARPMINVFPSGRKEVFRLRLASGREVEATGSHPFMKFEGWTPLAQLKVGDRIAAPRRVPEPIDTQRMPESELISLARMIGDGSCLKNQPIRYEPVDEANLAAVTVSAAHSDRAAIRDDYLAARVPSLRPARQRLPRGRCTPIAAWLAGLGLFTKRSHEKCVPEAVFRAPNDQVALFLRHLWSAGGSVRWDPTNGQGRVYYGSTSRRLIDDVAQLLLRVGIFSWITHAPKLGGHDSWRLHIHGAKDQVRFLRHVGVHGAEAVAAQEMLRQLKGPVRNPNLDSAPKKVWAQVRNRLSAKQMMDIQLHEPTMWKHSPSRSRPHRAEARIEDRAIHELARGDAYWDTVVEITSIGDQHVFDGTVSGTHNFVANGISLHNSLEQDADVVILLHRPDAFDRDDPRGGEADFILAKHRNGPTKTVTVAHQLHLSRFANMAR

Protein RecA = molecular target: T6, Protein RecA (Mycobacterium tuberculosis, UniProt P9WHJ3); test: Fluorescence Cell-Free Homogeneous Dose Retest to Identify Inhibitors of RecA-Intein Splicing Activity. [Related pubchem assays (depositor defined):AID2097, AID2223, AID489010, AID492950]; type: functional
T6 sequence (P9WHJ3 whole entry): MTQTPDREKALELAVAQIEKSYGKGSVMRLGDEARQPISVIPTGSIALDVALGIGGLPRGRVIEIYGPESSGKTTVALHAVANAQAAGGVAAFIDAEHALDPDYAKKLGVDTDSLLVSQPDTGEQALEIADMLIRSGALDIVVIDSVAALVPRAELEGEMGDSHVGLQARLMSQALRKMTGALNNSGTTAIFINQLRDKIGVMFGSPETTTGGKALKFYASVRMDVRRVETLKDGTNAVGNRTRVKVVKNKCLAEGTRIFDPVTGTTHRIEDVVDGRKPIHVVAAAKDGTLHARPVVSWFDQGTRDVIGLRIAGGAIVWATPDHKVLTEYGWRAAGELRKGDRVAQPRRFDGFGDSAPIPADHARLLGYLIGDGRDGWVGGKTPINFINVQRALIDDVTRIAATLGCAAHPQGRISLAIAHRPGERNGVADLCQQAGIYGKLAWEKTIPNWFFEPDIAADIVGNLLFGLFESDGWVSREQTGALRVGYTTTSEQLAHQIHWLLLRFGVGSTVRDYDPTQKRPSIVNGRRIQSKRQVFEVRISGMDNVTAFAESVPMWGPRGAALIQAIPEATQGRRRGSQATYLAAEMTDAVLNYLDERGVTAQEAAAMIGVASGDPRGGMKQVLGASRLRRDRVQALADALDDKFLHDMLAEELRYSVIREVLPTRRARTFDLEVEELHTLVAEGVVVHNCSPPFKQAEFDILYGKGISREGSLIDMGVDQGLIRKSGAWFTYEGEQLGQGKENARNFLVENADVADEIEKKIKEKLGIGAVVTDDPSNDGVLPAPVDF

Cc1cc(NC(=O)CCN2C(=O)C3C4CCC(C4)C3C2=O)c(C)cc1Br (stereo not given)
IC50 (Leucine aminopeptidase): 13.7 µM (active) | AC50 (Cytochrome P450 1A2): 15.8 µM (inconclusive) | AC50 (Cytochrome P450 2C9): inconclusive

Cc1cccc(N(C(=O)c2snc(C(N)=O)c2N)C(C(=O)NC2CCCC2)c2ccco2)c1 (stereo not given)
IC50 [1]: > 20 µM (inactive)

COc1ccccc1N1CCN(C(=O)c2ccoc2C)CC1
CC50 [2]: > 40 µM (active)

Nc1nc(-c2ccccn2)nc(N)c1Cc1ccccc1F
EC50 [3]: 5.85 µM (active) | EC50 [4]: 11 µM (active) | EC50 (H4): 0.414 µM (active) | EC50 (Streptokinase A): > 150 µM (not active) | EC50 [5]: 2.52 µM (active) | EC50 [6]: > 60 µM (not active) | EC50 (Streptococcus): > 150 µM (not active) | IC50 (Nonstructural protein 1): 6.51 µM (active)

CCC(=O)NC(c1cc(Cl)c2ccccc2c1O)C(C)C (stereo not given)
IC50 [1]: > 20 µM (inactive)

Nc1n[nH]c(SCC(=O)Nc2ccc3c(c2)CCC3)n1
IC50 (Leucine aminopeptidase): 45.2 µM (active)

Cc1ccc(C(=O)/C=C/c2cc(C#N)n(C)c2C)cc1
CC50 [2]: > 40 µM (active)

O=C(Cc1cc(O)n[nH]1)N/N=C/C(Cl)=C/c1ccccc1
IC50 (Leucine aminopeptidase): 90.6 µM (active) | AC50 [7]: 1.95 µM (active) and 2.24 µM (active) | EC50 (Protein RecA): 1.02 µM (active) and 2.32 µM (active)

COc1ccccc1NC(=O)c1c(/N=C/c2cccc([N+](=O)[O-])c2)cnn1C
IC50 [1]: > 20 µM (inactive)
